The nature of data set [1]: Maximum concentration in brain of rats after intravenous administration. The class given is ADME, organism-based. Set-up: route intravenous. Particulars: rat.
The nature of data set [2]: Maximum concentration in heart of rats after intravenous administration. The class given is ADME, organism-based. Set-up: route intravenous. Particulars: rat.
Data set [3] in a line: Maximum concentration in plasma of rats after intravenous administration. Set-up: route intravenous. The conditions noted are these: rat. The class given is ADME, organism-based.
The subject of data set [4] is P388. Nature of the data set: Effective concentration required to inhibit P388D1 cell death by 50%. The class given is functional, cell-based. The conditions noted are these: Mus musculus.
Data set [5] addresses Poly [ADP-ribose] polymerase 1 (Homo sapiens, UniProt P09874). Nature of the data set: Inhibitory activity against Poly (ADP-ribose) polymerase 1.
In data set [6] the test system is Rattus norvegicus. Briefly: Myocardial Ischemic stroke was expressed to determine the reduction in infarct volume at a dose of 40 mg/kg administered intravenously in rats. Particulars: route intravenous. The format is functional, Myocardium.
For data set [7], the system named is Rattus norvegicus. Nature of the data set: Cerebral Ischemic stroke was expressed to determine the reduction in infarct volume at a dose of 80 mg/kg administered intravenously in rats. The format is functional. The conditions noted are these: route intravenous.
In data set [8] the test system is Rattus norvegicus. Nature of the data set: Myocardial Ischemic stroke was expressed to determine the reduction in infarct volume at a dose of 20 mg/kg administered intravenously in rats. The class given is functional, Myocardium. Particulars: route intravenous.
Data set [9] has as its system Rattus norvegicus. Nature of the data set: Myocardial Ischemic stroke was expressed to determine the reduction in infarct volume at a dose of 80 mg/kg administered intravenously in rats. The class given is functional, Myocardium. Particulars: route intravenous.
Data set [10] concerns Rattus norvegicus. Nature of the data set: Cerebral Ischemic stroke was expressed to determine the reduction in infarct volume at a dose of 40 mg/kg administered intraperitoneally in rats. Particulars: route intraperitoneal. The class given is functional.
The test system of data set [11] is Rattus norvegicus. Nature of the data set: Cerebral Ischemic stroke was expressed to determine the reduction in infarct volume at a dose of 20 mg/kg administered intravenously i in rats. The class given is functional. Particulars: route intravenous.
Data set [12] has as its system Rattus norvegicus. Briefly: Cerebral Ischemic stroke was expressed to determine the reduction in infarct volume at a dose of 40 mg/kg administered intravenously i in rats. Particulars: route intravenous. The format is functional.
Data set [13] concerns Rattus norvegicus. Briefly: Cerebral Ischemic stroke was expressed to determine the reduction in infarct volume at a dose of 40 mg/kg administered intravenously in rats. The format is functional. Particulars: route intravenous.
Data set [14] concerns Rattus norvegicus. Nature of the data set: Cerebral Ischemic stroke was expressed to determine the reduction in infarct volume at a dose of 80 mg/kg administered intravenously i in rats. The format is functional. The conditions noted are these: route intravenous.
Data set [15] concerns Rattus norvegicus. Briefly: Cerebral Ischemic stroke was expressed to determine the reduction in infarct volume at a dose of 80 mg/kg administered intraperitoneally in rats. The format is functional. The conditions noted are these: route intraperitoneal.

Sequence of Poly [ADP-ribose] polymerase 1 (P09874 whole entry): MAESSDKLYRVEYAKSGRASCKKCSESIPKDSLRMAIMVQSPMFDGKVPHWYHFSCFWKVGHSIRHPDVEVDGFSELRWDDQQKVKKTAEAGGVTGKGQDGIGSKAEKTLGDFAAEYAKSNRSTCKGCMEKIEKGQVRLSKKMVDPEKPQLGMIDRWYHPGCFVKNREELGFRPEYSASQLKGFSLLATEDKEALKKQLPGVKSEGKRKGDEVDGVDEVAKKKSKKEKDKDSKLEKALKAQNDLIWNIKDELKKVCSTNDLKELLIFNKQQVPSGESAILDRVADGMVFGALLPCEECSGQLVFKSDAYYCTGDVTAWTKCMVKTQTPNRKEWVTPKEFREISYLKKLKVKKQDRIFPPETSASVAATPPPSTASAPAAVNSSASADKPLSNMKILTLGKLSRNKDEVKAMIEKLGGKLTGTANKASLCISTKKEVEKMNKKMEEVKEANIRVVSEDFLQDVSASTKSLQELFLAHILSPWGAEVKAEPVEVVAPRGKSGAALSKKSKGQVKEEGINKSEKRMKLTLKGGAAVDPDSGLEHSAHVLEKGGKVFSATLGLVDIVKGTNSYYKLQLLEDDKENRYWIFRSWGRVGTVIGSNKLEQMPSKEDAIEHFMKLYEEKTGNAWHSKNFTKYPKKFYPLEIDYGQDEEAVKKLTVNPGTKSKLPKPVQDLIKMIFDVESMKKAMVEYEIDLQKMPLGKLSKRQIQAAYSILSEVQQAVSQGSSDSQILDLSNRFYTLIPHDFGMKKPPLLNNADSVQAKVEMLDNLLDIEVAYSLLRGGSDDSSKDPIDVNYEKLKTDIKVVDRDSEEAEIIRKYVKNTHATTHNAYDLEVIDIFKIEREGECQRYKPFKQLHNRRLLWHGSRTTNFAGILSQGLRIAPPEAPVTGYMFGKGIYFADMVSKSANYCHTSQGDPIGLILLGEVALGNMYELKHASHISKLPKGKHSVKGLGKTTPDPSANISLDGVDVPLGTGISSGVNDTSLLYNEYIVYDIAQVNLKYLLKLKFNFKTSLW

For the compound `CS(=O)(=O)O.Oc1nc2ccc(N3CCN(CC4CC4)CC3)nc2c2ccccc12`, the Cmax – broadly, the maximum level reached in the sampled fluid or tissue – is 8850 ng/g in data set [1], 7480 ng/g in data set [2] and 1950 ng/mL in data set [3]. Further, the EC50 (commonly the concentration at which the effect is half-maximal) in data set [4] came to 145 nM. For the same compound, it took 71 nM to reach half-maximal inhibition in [5] (IC50). For the same compound, in [6], the Reduction worked out at 36%.

For the compound `Cl.O=C(CN1CCC(N2CCCC2)CC1)Nc1ccc2nc(O)c3ccccc3c2n1`, the Cmax in data set [1] was 1440 ng/g; in [2] it was 38400 ng/g; in data set [3], 4790 ng/mL. The compound further came in with an EC50 in data set [4] of 1270 nM. Besides, the Reduction in data set [7] was -1%; in data set [8], 13%; in data set [6], 39%; in data set [9] it was 44%.

As for `O=c1[nH]c2cnccc2c2ccccc12`, the 50% inhibitory concentration (IC50) (in general, the concentration that inhibits the measured activity by half) in [5] is 169 nM.

In turn, `O=c1[nH]c2ccccc2c2ccccc12` yielded an IC50 in data set [5] of 350 nM. For the same compound, the Reduction in [10] is -7%.

`NC(=O)c1ccccc1` [BENZAMIDE] came in with an IC50 in [5] of 20000 nM.

`Oc1nc2ccc(N3CCC(N4CCCC4)CC3)nc2c2ccccc12` showed an EC50 in data set [4] of 177 nM.

The compound `CCN(CC)CCNc1ccc2[nH]c(=O)c3ccccc3c2n1` had an IC50 in data set [5] of 173 nM.

Regarding `CN1C[C@H]2C[C@@H]1CN2c1ccc2nc(O)c3ccccc3c2n1`, the EC50 in data set [4] was 240 nM.

Turning to `CN(C)C1CCN(c2ccc3nc(O)c4ccccc4c3n2)CC1`, in [4], the EC50 was determined as 135 nM. In data set [5], this compound returned an IC50 of 112 nM.

Regarding `O=C(CN1CCCCC1)Nc1ccc2nc(O)c3ccccc3c2n1`, a half-maximal response in data set [4] (EC50) required 1110 nM.

As for `CN1CCN(c2ccc3nc(O)c4ccccc4c3n2)CC1.CS(=O)(=O)O`, the Cmax came to 13700 ng/g in data set [1], 2980 ng/g in [2] and 456 ng/mL in data set [3]. Besides, the Reduction is given as 33% in data set [11]; 18% in data set [12]; 44% in data set [13]; 35% in [14]; 18.8% in data set [6]; 25.5% in [9].

Turning to `CN(C)CC(=O)Nc1cnc2c(c1)nc(O)c1ccccc12`, the EC50 in [4] amounted to 2630 nM.

As for `CC(C)N1CCN(CC(=O)Nc2ccc3nc(O)c4ccccc4c3n2)CC1`, in data set [5], the IC50 was found to be 277 nM.

On to `O=c1[nH]c2cccnc2c2ccccc12`, for which the Reduction in data set [15] is given as 55%.

As to `Nc1ccc2[nH]c(=O)c3ccccc3c2n1`, in data set [5], it took 209 nM to reach half-maximal inhibition (IC50).

`C[N+]1([O-])CCN(c2ccc3nc(O)c4ccccc4c3n2)CC1`: in [3], the peak concentration (Cmax) turned out to be 10 ng/mL. In data set [4], the EC50 was 5800 nM.

In data set [4], `CN1CCN(c2ccc3nc(O)c4ccccc4c3n2)CC1` registered an EC50 of 125 nM.

Consider `CN(C)CC(=O)Nc1ccc2nc(O)c3ccccc3c2n1`, for which, in data set [4], the EC50 is 2080 nM.

As for `O=C(CN1CCC(N2CCCC2)CC1)Nc1cnc2c(c1)nc(O)c1ccccc12`, in data set [4], a half-maximal effect (EC50) was put at 1140 nM.

The compound `CC(C)(C)OC(=O)N1C[C@H]2C[C@@H]1CN2c1ccc2[nH]c(=O)c3ccccc3c2n1` registered an IC50 in data set [5] of 774 nM.

On to `CS(=O)(=O)O.Oc1nc2ccc(N3CCNCC3)nc2c2ccccc12`, for which the Cmax worked out at 2180 ng/g in [1], 20300 ng/g in data set [2] and 3790 ng/mL in data set [3]. In data set [4], this compound gave an EC50 of 150 nM. The compound further came in with an IC50 in data set [5] of 58 nM.

As to `Oc1nc2ccncc2c2ccccc12`, the Reduction in data set [10] is listed as 47%.

`Oc1nc2ccc(N3C[C@H]4C[C@@H]3CN4)nc2c2ccccc12`: it took 42 nM to reach half-maximal inhibition in data set [5] (IC50).
